What was measured:
[1] = ITC measurements; cited from earlier work
[2] = ITC measurements; cited from earlier work; remark: listed apart in the source
[3] = ITC association constant of cetirizine-β-cyclodextrin complex; format: binding; conditions: beta vs alpha and gamma cyclodextrin
From the text: Either the phenyl group or the 4-chlorophenyl group fit inside the ring structure. The inside cavity of cylcodextrins is largely hydrophobic which is favorable for aromatic systems that are also hydrophobic. The formation of the chelate structure is […] favorable due to electrostatic interactions of the pi system of the aromatic moiety with in the hydrophobic cavity and electronic interaction with the hydrogen atoms and […]. It is these electronic interactions between these systems of the cyclodextrin and the pi system that gives the favorable heat of formation.

[4] = ITC measurements; cited from earlier work; remark: listed apart in the source

**Q.** For `O=C(O)COCCN1CCN(C(c2ccccc2)c2ccc(Cl)cc2)CC1` (stereo not shown) [cetirizine], which “association constant K(a), cetirizine-β-cyclodextrin complex” value [1] is on record?
**A.** Its value is 5641 ± 358 M⁻¹.

**Q.** And the “association constant, cetirizine-γ-cyclodextrin complex” value [2]?
**A.** The value was 1200 ± 50 M⁻¹.

**Q.** And the “formation constant of beta cyclodextrin complex relative to alpha and gamma cyclodextrin” value [3]?
**A.** The value was “nearly four times”.

**Q.** What about the “association constant K(a), cetirizine-α-cyclodextrin complex” value [4] of the same compound?
**A.** The value was 1434 ± 60 M⁻¹.
